# “And” between values parts separate entries of the source, which are not always exact repeats. Identical values can stand only once.
# Tests used:
# [1] = tested on: estrogen receptor β (ERβ) mRNA; test: Semi-quantitative RT-PCR of ERβ mRNA in MCF-7 cells; format: cell-based, human; settings: 100 μM
# Method: Total RNA preparation and Reverse Transcription Polymerase Chain Reaction (RT-PCR): Total RNA from MCF-7 cells was prepared with Trizol (Invitrogen, Carlsbad, Calif.) as described before (41). For reverse transcription, 2 μg of RNA were used in a […] with random primers and M-MLV reverse transcriptase (Invitrogen, Carlsbad, Calif.), following the manufacturer's protocol. To control for possible contamination from genomic DNA in subsequent PCR reactions, control reverse transcription reactions were carried out under identical conditions, only without reverse transcriptase. After reverse transcription, 5% of the product was used in each PCR reaction. For the experiments analyzing A3 adenosine receptor (A3AR) expression, 27 cycles were used in the PCR reactions. Specific primers were designed for human A3AR, which match to two separate exons, according to genomic sequences (from GenBank). Sequences for the sense and antisense A3AR primers are: 5′tccatcatgtccttgctg3′ (SEQ ID NO: 1) and 5′gcacatgacaaccaggg3′ (SEQ ID NO.: 2). In the experiments analyzing estrogen receptor a (ERα) mRNA, semi-quantitative PCR reactions were carried out with 23 cycles for ERα primers and 19 cycles for GAPDH primers (used as a control). The cycle numbers were tested in previous experiments not to produce saturation effects. […]
# MCF-7 cells [2] = test: Thymidine incorporation assay; format: cell-based, human; settings: treated 24 hours before thymidine
# Method: Thymidine Incorporation Assay. Thymidine incorporation assays were performed as described (Zhang, Y., Wang, Z., and Ravid, K. The cell cycle in polyploid megakaryocytes is associated with reduced activity of cyclin B1-dependent cdc2 kinase. J Biol Chem, 271: 4266-4272, 1996) with modifications. Rat bone marrow cells were cultured in 25 cm^2 flasks at a concentration of 20×10^6 cells per 2 ml. After drug treatment for 24 hours, cells were incubated with ^3H-thymidine at a final concentration of 3 μCi/ml for 8 hours. For MCF-7 cells, cells were cultured in 6-well plates and incubated with ^3H-thymidine for 2 hours after drug treatment. Cells were divided into two portions, sixty percent of which were processed as described (Id.) to obtain tritium counts. The rest of the cells were lysed with Western blotting lysis buffer and protein concentrations were determined by Bio-Rad protein assay reagent (Bio-Rad, Hercules, Calif.). Tritium counts were normalized with corresponding protein concentrations to account for cell number variations.
# [3] = tested on: ERα protein in ZR-75 cells; test: ERα protein level in ZR-75 cells; format: cell-based, human; settings: not shown
# Method: Western Blot Analysis: Cells were washed three times in cold 1×PBS, and collected by scraping on ice. Western blot analysis was performed as we described before with the chemiluminescence method (41). Antibodies used in this study were: ERα (NeoMarkers, Ab-15), Cyclin A (Santa Cruz Biotech, H-432), Cyclin B1 (Santa Cruz Biotech, H-433), Cyclin E (Upstate Biotech, HE-12), p27 (Santa Cruz Biotech, F-8). ERα antibody was used at 1:100 dilutions. Cyclin A, cyclin B1 and p27 antibodies were used at 1:500 dilutions. Cyclin E antibody was used at 1:1000 dilutions.
# [4] = tested on: MCF-7 cells overexpressing ERα; test: Growth of MCF-7 cells transiently transfected with pcDNA3-ERα; format: cell-based, human; settings: 100 μM; one day; transfection efficiency approximately 40%
# Method: Anchorage-dependent growth assay: Cells were plated into 6-well plates and grown overnight before treatments. The seeding concentration of MCF-7 cells was 2×10^5/well, which was determined during preliminary experiments as not allowing the cells to reach confluency within 3 days. Cells were treated either with vehicle or ligands, as indicated. Cells were detached by incubation with trypsin (Invitrogen, Carlsbad, Calif.) and counted with a hemacytometer before or after treatment. Transfections and Reporter Gene Assay: Transient transfection was performed using FuGene6 (Roche, Indianapolis, Ind.) transfection reagent according to manufacturer's protocol. Circular reporter plasmid pERE-Tk-Luc at 10 μg and 10 μg of pCMV-β-Gal (as a measure of efficiency of trasnfection) were transfected with 50 μl of FuGene6. Cells were split into 6 well plates 12 hours after transfection, and incubated overnight in fresh medium. […] Luciferase and β-galactosidase activities were measured as described before (43, 44).
# MCF-7 cells [5] = test: Cell cycle analysis by flow cytometry; format: cell-based, human
# Method: Flow Cytometry and Apoptosis Analysis: Cells were detached from tissue culture plates by trypsin treatment. Cells were collected by centrifugation at 1200 g for 5 minutes and washed once with PBS. Staining of cells with propidium iodide and analysis on a flow cytometer (FACScan, Becton Dickinson, Research Triangle Park, N.C.) was performed as described before (42). Data were analyzed with CellQuest software (Becton Dickinson, Research Triangle Park, N.C.). The percentage of cells appearing with a ploidy level smaller than a diploid content was calculated as an estimate of cells undergoing apoptosis.
# [6] = in vivo application; Fishman et al. 2002; cited from earlier work
structure (smiles),measurement,setting,value
"CNC(=O)[C@H]1O[C@@H](n2cnc3c(NCc4cccc(I)c4)ncnc32)[C@H](O)[C@@H]1O [IB-MECA, N^6-(3-iodobenzyl)adenosine-5′-N-methyluronamide]",Estrogen receptor β message level,[1],not significantly reduced
same,Thymidine incorporation decreased to,MCF-7 cells [2],28%
same,"ERα protein levels, in words",[3],Reduction of ERα protein levels
same,Effect on growth of ERα-overexpressing cells,[4],moderate effect on growth
same,Percentage of cells in G2/M (tetraploid DNA content),"MCF-7 cells [5]; 100 μM for 2 days, vehicle 24.6%",23.4% and 23%
same,Percentage of cells in S phase,"MCF-7 cells [5]; 100 μM for 2 days, vehicle 25.2%",12.3% and 12%
same,Percentage of cells in G1 phase (diploid DNA content),"MCF-7 cells [5]; 100 μM for 2 days, vehicle 50.2%",64.2% and 64%
same,Percentage change of diploid (G0 or G1 phase) population compared to vehicle-treated cells,"MCF-7 cells [5]; 100 μM, except adenosine (500 μM) and inosine (1 mM), first number in parentheses",28%
same,Percentage change of S phase population compared to vehicle-treated cells,"MCF-7 cells [5]; 100 μM, except adenosine (500 μM) and inosine (1 mM), second number in parentheses",−51%
same,Percentage change of tetraploid (G2 or M phase) population compared to vehicle-treated cells,"MCF-7 cells [5]; 100 μM, except adenosine (500 μM) and inosine (1 mM), third number in parentheses",−5%
same,Effect on blood cell counts,[6],no inhibitory effect
